The target in test [1] is T1, Son of sevenless homolog 1 (Homo sapiens) (UniProt Q07889).
T1 sequence (whole entry): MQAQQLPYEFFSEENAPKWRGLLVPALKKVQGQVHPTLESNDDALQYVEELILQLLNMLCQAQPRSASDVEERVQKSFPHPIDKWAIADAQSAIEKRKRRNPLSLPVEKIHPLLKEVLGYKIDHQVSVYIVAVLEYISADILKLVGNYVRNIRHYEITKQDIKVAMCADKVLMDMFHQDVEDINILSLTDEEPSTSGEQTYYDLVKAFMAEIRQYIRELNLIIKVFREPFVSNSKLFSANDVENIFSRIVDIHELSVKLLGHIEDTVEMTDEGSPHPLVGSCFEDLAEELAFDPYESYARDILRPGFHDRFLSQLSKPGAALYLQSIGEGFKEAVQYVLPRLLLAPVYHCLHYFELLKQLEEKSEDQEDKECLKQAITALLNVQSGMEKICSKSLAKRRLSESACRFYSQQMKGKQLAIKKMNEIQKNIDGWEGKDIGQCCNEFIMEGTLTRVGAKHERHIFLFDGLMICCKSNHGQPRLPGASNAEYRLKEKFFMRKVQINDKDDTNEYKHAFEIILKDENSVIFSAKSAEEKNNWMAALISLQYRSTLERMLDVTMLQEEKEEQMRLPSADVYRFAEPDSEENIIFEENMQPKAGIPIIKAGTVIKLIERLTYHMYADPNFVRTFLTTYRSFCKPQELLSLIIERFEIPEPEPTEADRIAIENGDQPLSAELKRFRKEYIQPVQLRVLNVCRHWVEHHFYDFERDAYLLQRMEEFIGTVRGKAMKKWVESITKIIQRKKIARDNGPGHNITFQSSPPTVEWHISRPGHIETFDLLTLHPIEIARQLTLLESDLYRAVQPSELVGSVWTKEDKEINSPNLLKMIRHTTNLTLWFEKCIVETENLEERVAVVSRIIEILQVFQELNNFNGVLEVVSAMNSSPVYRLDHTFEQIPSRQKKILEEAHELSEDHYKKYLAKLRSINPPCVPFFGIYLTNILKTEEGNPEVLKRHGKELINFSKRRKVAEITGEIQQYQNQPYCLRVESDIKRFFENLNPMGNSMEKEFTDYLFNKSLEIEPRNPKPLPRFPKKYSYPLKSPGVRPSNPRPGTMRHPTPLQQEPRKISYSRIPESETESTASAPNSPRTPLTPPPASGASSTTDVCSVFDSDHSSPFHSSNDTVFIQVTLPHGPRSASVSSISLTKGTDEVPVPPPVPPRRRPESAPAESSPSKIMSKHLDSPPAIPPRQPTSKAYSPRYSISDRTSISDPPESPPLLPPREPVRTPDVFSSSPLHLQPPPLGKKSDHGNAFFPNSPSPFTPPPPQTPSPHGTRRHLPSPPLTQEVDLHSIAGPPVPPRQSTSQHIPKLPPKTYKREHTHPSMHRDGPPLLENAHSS
In words: Inhibition of SOS1 (unknown origin) at 500 nM.

Test [2] has as its system K562. In words: Antiproliferative activity against human K562 cells assessed as inhibition of cell proliferation. The format is functional, cell-based.
In test [3] the target is T2, Son of sevenless homolog 1 (Homo sapiens, UniProt Q07889).
T2 sequence (Q07889 whole entry): T1 sequence (whole entry)
Put plainly: Inhibition of SOS1 (unknown origin).

In test [4] the target is Epidermal growth factor receptor (Homo sapiens) (UniProt P00533). Put plainly: Inhibition of wild type EGFR (unknown origin) at 5000 nM.
Test [5] deals with NCI-H838. Put plainly: Antiproliferative activity against human NCI-H838 cells assessed as inhibition of cell proliferation. Type of test: functional, cell-based.

Chain of Epidermal growth factor receptor (Homo sapiens) (P00533 whole entry): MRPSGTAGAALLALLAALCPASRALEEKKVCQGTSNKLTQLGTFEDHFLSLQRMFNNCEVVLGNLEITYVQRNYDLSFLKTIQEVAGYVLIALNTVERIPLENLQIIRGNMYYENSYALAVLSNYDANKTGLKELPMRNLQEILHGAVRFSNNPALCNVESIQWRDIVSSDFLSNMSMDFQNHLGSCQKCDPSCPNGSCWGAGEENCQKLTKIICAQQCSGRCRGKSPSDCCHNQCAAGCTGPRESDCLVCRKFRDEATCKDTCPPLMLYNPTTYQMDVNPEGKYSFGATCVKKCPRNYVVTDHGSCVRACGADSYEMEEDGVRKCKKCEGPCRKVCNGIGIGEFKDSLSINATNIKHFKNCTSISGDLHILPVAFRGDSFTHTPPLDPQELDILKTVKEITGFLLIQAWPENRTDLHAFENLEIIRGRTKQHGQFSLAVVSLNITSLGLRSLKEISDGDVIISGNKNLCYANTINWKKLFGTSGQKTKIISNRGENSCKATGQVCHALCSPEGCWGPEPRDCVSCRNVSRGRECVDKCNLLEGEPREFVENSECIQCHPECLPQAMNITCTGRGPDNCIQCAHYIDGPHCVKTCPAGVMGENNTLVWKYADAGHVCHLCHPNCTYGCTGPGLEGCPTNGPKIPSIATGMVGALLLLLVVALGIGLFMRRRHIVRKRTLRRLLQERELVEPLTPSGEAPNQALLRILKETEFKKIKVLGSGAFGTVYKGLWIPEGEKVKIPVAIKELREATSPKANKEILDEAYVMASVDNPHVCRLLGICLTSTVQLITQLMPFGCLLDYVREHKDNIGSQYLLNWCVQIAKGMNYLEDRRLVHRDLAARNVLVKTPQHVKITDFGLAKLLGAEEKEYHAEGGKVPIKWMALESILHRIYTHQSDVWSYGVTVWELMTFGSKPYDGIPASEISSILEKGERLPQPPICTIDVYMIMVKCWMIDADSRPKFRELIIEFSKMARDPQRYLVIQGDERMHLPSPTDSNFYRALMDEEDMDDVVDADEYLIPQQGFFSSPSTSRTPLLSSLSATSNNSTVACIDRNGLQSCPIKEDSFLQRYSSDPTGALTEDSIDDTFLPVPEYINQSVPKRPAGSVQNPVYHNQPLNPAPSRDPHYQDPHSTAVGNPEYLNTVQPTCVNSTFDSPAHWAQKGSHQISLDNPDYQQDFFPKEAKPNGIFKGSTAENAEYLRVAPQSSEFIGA

Take `Cc1nc(NC(C)c2cc(-c3ccccc3CNCCO)cs2)c2cc3c(cc2n1)OCCO3` (racemic): the inhibition – broadly, the share of the control response that was lost under treatment – in test [1] is 85.1%. In addition, the figures for the IC50 in test [2] and in test [3] were 2480 nM and 45 nM, respectively.

In test [1], `CNCc1ccccc1-c1ccc(C(C)Nc2ncnc3cc(OC)c(OC)cc23)s1` (racemic) returned an inhibition of 98.7%.

Compound `COc1cc2ncnc(NC(C)c3cc(-c4ccccc4C(N)=O)cs3)c2cc1OC` (racemic) showed an inhibition in test [1] of 33.7%.

In test [1], `COc1cc2ncnc(NC(C)c3cc(-c4ccccc4N)cs3)c2cc1OC` (racemic) returned an inhibition of 61%.

Take `CNCc1ccccc1-c1csc([C@@H](C)Nc2nc(C)nc3cc(OC)c(OC)cc23)c1` [BAY-293]: the IC50 (commonly the point on the concentration scale where inhibition reaches its midpoint) in test [2] is 230 nM.

For `COc1cc2ncnc(NC(C)c3cc(-c4ccccc4CNCCO)cs3)c2cc1OC` (racemic), in test [1], the inhibition worked out at 97.5%. For the same compound, the results for the IC50 in test [2] and in test [3] were 4050 nM and 18 nM, respectively.

As to `CNCc1ccccc1-c1ccc(C(C)Nc2ncnc3cc4c(cc23)OCCO4)s1` (racemic), in test [1], the inhibition came out at 75.9%.

Consider `COc1cc2ncnc(NC(C)c3ccc(-c4ccccc4C(N)=O)s3)c2cc1OC` (racemic), for which the inhibition in test [1] was found to be 38.7%.

Regarding `COc1cc2ncnc(NC(C)c3cc(-c4ccccc4O)cs3)c2cc1OC` (racemic), in test [1], the inhibition turned out to be 65.7%.

Turning to `COc1cc2ncnc(NC(C)c3ccc(-c4ccccc4O)s3)c2cc1OC` (racemic), in test [1], the inhibition was determined as 43.9%.

With `COc1cc2ncnc(NC(C)c3ccc(-c4ccccc4CNCCO)s3)c2cc1OC` (racemic), the figures for the inhibition in test [1] and in test [4] were 99.1% and 20.7%, respectively. Moreover, the IC50 was 890 nM in test [2], 8.5 nM in test [3] and greater than 25000 nM in test [5].

`CNCc1ccccc1-c1ccc(C(C)Nc2nc(C)nc3cc4c(cc23)OCCO4)s1` (racemic) registered an inhibition in test [1] of 77.3%.

`CNCc1ccccc1-c1csc(C(C)Nc2ncnc3cc(OC)c(OC)cc23)c1` (racemic): the inhibition in test [1] was determined as 99%; in test [4] it was 38.1%. Further, the half-maximal inhibitory concentration (IC50) in test [2] is 2210 nM; in test [3] it was 20 nM; in test [5], greater than 25000 nM.

Compound `CC(Nc1ncnc2cc3c(cc12)OCCO3)c1cc(-c2ccccc2CNCCO)cs1` (racemic) yielded an inhibition in test [1] of 80.2%.

Turning to `CC(Nc1ncnc2cc3c(cc12)OCCO3)c1ccc(-c2ccccc2CNCCO)s1` (racemic), the inhibition in test [1] was determined as 79.4%.

Turning to `Cc1nc(NC(C)c2ccc(-c3ccccc3CNCCO)s2)c2cc3c(cc2n1)OCCO3` (racemic), in test [1], the inhibition stood at 89.1%.

Take `COc1cc2ncnc(NC(C)c3ccc(-c4ccccc4N)s3)c2cc1OC` (racemic): the inhibition in test [1] came out at 75.2%.

Regarding `CNCc1ccccc1-c1csc(C(C)Nc2ncnc3cc4c(cc23)OCCO4)c1` (racemic), the values for the inhibition in test [1] and in test [4] were 78.5% and 22.2%, respectively. Moreover, the half-inhibitory concentration (IC50) in test [2] was 2870 nM; in test [3], 97 nM; in test [5] it was greater than 25000 nM.

With `CNCc1ccccc1-c1csc(C(C)Nc2nc(C)nc3cc4c(cc23)OCCO4)c1` (racemic), the inhibition in test [1] was determined as 81.4%. Besides, the values for the IC50 in test [2] and in test [3] were 3490 nM and 27 nM, respectively.

The record behind these values is ChEMBL document CHEMBL5257075, “Design, synthesis and biological evaluation of quinazoline SOS1 inhibitors” (Bioorg Med Chem Lett, 2023).
